# Source: US20100099714A1, “AMPA and NMDA Receptor Antagonists for Neurodegenerative Diseases” (Eisai R&D Management Co., Ltd., priority 2007, published 2010)
# What was measured:
# Cortical cell cultures = assay: NMDA and kainate-induced toxicity, MTT assay of cell viability; assay type: cell-based, rat; settings: for protection of neuron from excitotoxicity induced by combination treatment with kainate and NMDA: 100 μM NMDA and 100 μM kainate for 24 h, monotherapy, FIG. 1A, B
# Method: Cortical cell cultures were prepared from fetal rats of the Wistar strain (gestational age of 17 to 19 days, Charles River Japan, Kanagawa, Japan). The cortex was dissected and kept in Neurobasal medium (Invitrogen Corp., Carlsbad, Calif., USA) containing 2% B27 supplement (Invitrogen), 25 μM 2-mercaptoethanol (Wako), 0.5 mM L-glutamine (Invitrogen) and ×1/100 volume of antibiotic-antimycotic (Invitrogen), then incubated at 37° C. for 30 min in Ca^2+/Mg^2+ free Hank's balanced salt solution (MSS; 10 mM HEPES, pH 7.3) containing 0.25% trypsin (Invitrogen) and 0.2 mg/ml deoxyribonuclease (DNase) (Sigma). The cortical tissues were dissociated to single cells by gentle trituration. The cell suspension was centrifuged at 310×g for 3 min and the resulting pellets were resuspended in the medium described above.
# The cells were plated at an initial cell density of 5×10^5 cells/cm^2 in poly-L-lysine (Sigma)-coated 96-well plates. The cells were cultured in a CO2 incubator (5% (v/v), at 37° C. in the Neurobasal medium described above for 7 days, and cultured following 4 days in culture medium without antioxidant B27 supplement and 2-mercaptoethanol. The cultures were exposed to 100 μM of N-methyl-D-aspartate (NMDA)(Sigma) and 100 μM of kainate (Sigma) for 24 h at 37° C. The cells were treated with perampanel (0.03, 0.3, 3 or 30 μM) and memantine HCl (0.1, 1, 10 or 100 μM) for 24 h before and during the exposure to these agonists. In the combination experiment, perampanel at […] or memantine at 10 μM or its combination was used.
# Viability of cells grown in 96-well plates was measured by 3-[4,5-dimethylthylthiazol-2-yl]-2,5-diphenyltetrazolium bromide (MTT) assay. The 10 μl of 8 mg/ml MTT (Sigma) solution in D-PBS(−) (Dulbecco's phosphate-buffered saline, Sigma) was added to each well. During 10 min incubation at 37° C., the active dehydrogenase in viable mitochondria reduces the tetrazolium ring of MTT, forming a blue-colored precipitate. The cells were lysed and the precipitate was dissolved in […] of MTT solubilizing buffer containing 20% sodium dodecyl sulfate (SDS: Wako) in 50% N,N-dimethyl formamide at pH 4.7, and quantified spectrophotometrically at 550-690 nm.
# Wells without cells, containing only the medium and MTT solution, were measured to obtain the background value, which was subtracted from measured values at 550-690 nm, as follows: % of Recovery=(sample−NMDA/Kainate treated control)/(non-treated control−NMDA/Kainate treated control)×100.
# The data were analyzed with one-way analysis of variance (ANOVA) followed by Dunnett's multiple comparison test using the software package SAS ver. 8.2 (SAS Institute Japan Ltd., Tokyo, Japan).
# [1] = Pharmacokinetic study of memantine, plasma concentration after single dose; assay type: in vivo, human; settings: corresponds to 20-25 ng/ml at 20 mg single dose
# Method: The efficacy of memantine in a variety of dementias has been shown in clinical trials. Memantine is considered to be a promising neuroprotective drug for the treatment of dementias, particularly Alzheimer's disease (Jain K K, Evaluation of memantine for neuroprotection in dementia. Expert Opin Investig Drugs 2000; 9(6): 1397-406.). Clinical dosage of mamentine is 20 mg/day. Maximal plasma concentration of memantine at 20 mg was at around 20-25 ng/ml after single dose treatment (Periclou A, et al., Pharmacokinetic study of memantine in healthy and renally impaired subjects. Clin Pharmacol Ther 2006; 79: 134-43.). This plasma concentration roughly correspond to 0.1 μM.
# [2] = 20 mg, single dose treatment; cited from earlier work
# [3] = 40 mg/day compared to 20 mg/day; cited from earlier work
# Alzheimer's disease = Alzheimer's disease trials; cited from earlier work
# [4] = clinically relevant concentration, roughly 0.1 μM
smiles,measurement,setting,value
"C[C@]12CC3C[C@](C)(C1)C[C@@](N)(C3)C2 [memantine, 1-amino-3,5-dimethyl-adamantane]",protection of neuron from excitotoxicity induced by combination treatment with kainate and NMDA,Cortical cell cultures,protected neuron from excitotoxicity
same,effect size at clinically relevant concentration,Cortical cell cultures; [4],small and far below maximal effect
same,neuroprotective effect at clinically relevant concentration,Cortical cell cultures; [4],significant neuroprotective effect
same,plasma concentration converted to molar,[1],~100 nM
same,Maximal plasma concentration,[2],20 to 25 ng/mL
same,risk of adverse event,[3],higher risk of adverse event
same,clinical effect,Alzheimer's disease,modest
"N#Cc1ccccc1-c1cc(-c2ccccn2)cn(-c2ccccc2)c1=O [perampanel, 2-(2-oxo-1-phenyl-5-pyridin-2-yl-1,2-dihydropyridin-3-yl)benzonitrile]",shape of the neuroprotective effect over concentration,Cortical cell cultures; 100 μM NMDA and 100 μM kainate,ceiling on the effect from lowest concentration showing neuroprotection
same,protection of neuron from excitotoxicity induced by combination treatment with kainate and NMDA,Cortical cell cultures,protected neuron from excitotoxicity
